The text below walks through data of PubChem BioAssay AID220 (DTP/NCI, 2004).

Where “and” joins values, the source holds several entries; their conditions need not be identical. Identical values can stand only once. Records with an inconclusive call do not appear.

This experiment deals with CD8F1 mice, subcutaneous mammary adenocarcinoma, T/C%. The experiment is described as follows: NCI In Vivo Anticancer Drug Screen. Data for tumor model Mammary Adenocarcinoma CD8F1 (subcutaneous) in CD8F1. To be noted: higher = larger tumour. Summed up:
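Antitumor activity is assessed in transplantable-tumor mice by comparing the treated group with a vehicle-treated control group. Survival or tumor size serves as the measure, reported as T divided by C.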

Where [1] appears, read: endpoint: median tumor weight (est.), dose: 25.0 mg/kg/injection, schedule: Q07DX005 (ip), vehicle: saline.
[2] abbreviates: endpoint: median tumor weight (est.), dose: 50.0 mg/kg/injection, schedule: Q07DX005 (ip), vehicle: saline.
Setting [3] is: endpoint: median tumor weight (est.), dose: 100.0 mg/kg/injection, schedule: Q07DX005 (ip), vehicle: saline.
Where [4] appears, read: endpoint: median tumor weight (est.), dose: 200.0 mg/kg/injection, schedule: Q07DX005 (ip), vehicle: saline.
The mark [5] stands for this setting: endpoint: median tumor weight (est.), dose: 400.0 mg/kg/injection, schedule: Q07DX005 (ip), vehicle: saline.
The mark [6] stands for this setting: endpoint: median tumor weight change, dose: 125.0 mg/kg/injection, schedule: Q01DX001 (ip), vehicle: saline with Tween-80.
[7] abbreviates: endpoint: median tumor weight change, dose: 250.0 mg/kg/injection, schedule: Q01DX001 (ip), vehicle: saline with Tween-80.

In the case of `CCOC(=O)Nc1cc2c(c(N)n1)N=C(c1ccccc1)CN2`, the T/C was 86 % of control (endpoint: median tumor weight change, dose: 6.25 mg/kg/injection, schedule: Q01DX001 (ip), vehicle: saline with Tween-80) and 35 % of control (endpoint: median tumor weight change, dose: 12.5 mg/kg/injection, schedule: Q01DX001 (ip), vehicle: saline with Tween-80).
For the compound `CCCCN(CCCC)C(Cl)=Nc1ccccc1`, the T/C (endpoint: median tumor weight change, dose: 125.0 mg/kg/injection, schedule: Q01DX001 (ip), vehicle: Klucel (hydroxypropylcellulose) (HPC)) was 82 % of control and 107 % of control.
Regarding `C=CCc1cn(C2CC(O)C(CO)O2)c(=O)[nH]c1=O` (stereo unspecified), the T/C was 58 % of control under setting [1]; 79 % of control under setting [2]; 86 % of control under setting [3]; 248 % of control under setting [4]; 75 % of control under setting [5]; 79 % of control (endpoint: median tumor weight (est.), dose: 800.0 mg/kg/injection, schedule: Q07DX005 (ip), vehicle: saline).
For the compound `CC(C)NC(=O)N(CCCCBr)N=O`, the T/C is, setting by setting: (endpoint: median tumor weight change, dose: 49.37 mg/kg/injection, schedule: Q01DX001 (ip), vehicle: Klucel (hydroxypropylcellulose) (HPC)) 43 % of control; (endpoint: median tumor weight change, dose: 62.0 mg/kg/injection, schedule: Q01DX001 (ip), vehicle: Klucel (hydroxypropylcellulose) (HPC)) 42 % of control; (endpoint: median tumor weight change, dose: 98.75 mg/kg/injection, schedule: Q01DX001 (ip), vehicle: Klucel (hydroxypropylcellulose) (HPC)) 34 % of control; (endpoint: median tumor weight change, dose: 197.5 mg/kg/injection, schedule: Q01DX001 (ip), vehicle: Klucel (hydroxypropylcellulose) (HPC)) -13 % of control; (endpoint: median tumor weight change, dose: 395.0 mg/kg/injection, schedule: Q01DX001 (ip), vehicle: Klucel (hydroxypropylcellulose) (HPC)) -66 % of control; (endpoint: median tumor weight change, dose: 500.0 mg/kg/injection, schedule: Q01DX001 (ip), vehicle: Klucel (hydroxypropylcellulose) (HPC)) -41 % of control.
Consider `O=C(NP(=O)(N1CC1)N1CC1)c1cc(I)ccc1I`, for which the T/C is, setting by setting: (endpoint: median tumor weight (est.), dose: 16.0 mg/kg/injection, schedule: Q07DX005 (ip), vehicle: saline with Tween-80) 68 % of control; (endpoint: median tumor weight (est.), dose: 32.0 mg/kg/injection, schedule: Q07DX005 (ip), vehicle: saline with Tween-80) 77 % of control; (endpoint: median tumor weight (est.), dose: 64.0 mg/kg/injection, schedule: Q07DX005 (ip), vehicle: saline with Tween-80) 49 % of control; (endpoint: median tumor weight (est.), dose: 128.0 mg/kg/injection, schedule: Q07DX005 (ip), vehicle: saline with Tween-80) 6 % of control.
Consider `C[C@@]1(CO)[C@H](O)CC[C@@]2(C)[C@H]1CC[C@H]1C[C@@H]3C[C@@]12CC[C@@]3(O)COC(=O)CN`, for which the T/C runs as follows: (endpoint: median tumor weight change, dose: 9.88 mg/kg/injection, schedule: Q01DX001 (ip), vehicle: Klucel (hydroxypropylcellulose) (HPC)) 78 % of control; (endpoint: median tumor weight change, dose: 18.75 mg/kg/injection, schedule: Q01DX001 (ip), vehicle: Klucel (hydroxypropylcellulose) (HPC)) 68 % of control; (endpoint: median tumor weight change, dose: 37.5 mg/kg/injection, schedule: Q01DX001 (ip), vehicle: Klucel (hydroxypropylcellulose) (HPC)) 98 % of control; (endpoint: median tumor weight change, dose: 75.0 mg/kg/injection, schedule: Q01DX001 (ip), vehicle: Klucel (hydroxypropylcellulose) (HPC)) 84 % of control; (endpoint: median tumor weight change, dose: 62.5 micrograms/kg/injection, schedule: Q01DX001 (ip), vehicle: saline + alcohol) 170 % of control; (endpoint: median tumor weight change, dose: 125.0 micrograms/kg/injection, schedule: Q01DX001 (ip), vehicle: saline + alcohol) 90 % of control. The T/C was 115 % of control (endpoint: median tumor weight change, dose: 250.0 micrograms/kg/injection, schedule: Q01DX001 (ip), vehicle: saline + alcohol) and 106 % of control (endpoint: median tumor weight change, dose: 1000.0 micrograms/kg/injection, schedule: Q01DX001 (ip), vehicle: saline + alcohol).
As for `COC(=O)C(F)C(Br)C(=O)OC` (stereo unspecified), the T/C is 61 % of control (endpoint: median tumor weight (est.), dose: 6.25 mg/kg/injection, schedule: Q07DX005 (ip), vehicle: saline with Tween-80); 87 % of control (endpoint: median tumor weight (est.), dose: 12.5 mg/kg/injection, schedule: Q07DX005 (ip), vehicle: saline with Tween-80); 106 % of control (endpoint: median tumor weight (est.), dose: 25.0 mg/kg/injection, schedule: Q07DX005 (ip), vehicle: saline with Tween-80); 74 % of control (endpoint: median tumor weight (est.), dose: 50.0 mg/kg/injection, schedule: Q07DX005 (ip), vehicle: saline with Tween-80); 77 % of control (endpoint: median tumor weight (est.), dose: 100.0 mg/kg/injection, schedule: Q07DX005 (ip), vehicle: saline with Tween-80).
For `O=C(O)CC(NC(=O)CP(=O)(O)O)C(=O)O` (stereo unspecified), the T/C is 92 % of control under setting [1]; 94 % of control under setting [2]; 62 % of control under setting [3]; 56 % of control under setting [4]; 9 % of control under setting [5]; 81 % of control (endpoint: median tumor weight change, dose: 100.0 mg/kg/injection, schedule: Q01DX001 (ip), vehicle: saline). For the same compound, the T/C (endpoint: median tumor weight change, dose: 200.0 mg/kg/injection, schedule: Q01DX001 (ip), vehicle: saline) is 92 % of control; the T/C (endpoint: median tumor weight change, dose: 400.0 mg/kg/injection, schedule: Q01DX001 (ip), vehicle: saline) is 85 % of control; the T/C (endpoint: median tumor weight change, dose: 800.0 mg/kg/injection, schedule: Q01DX001 (ip), vehicle: saline) was 66 % of control.
For `COc1cccc2c1C(=O)c1c(O)c3c(c(O)c1C2=O)C[C@@](O)(C(=O)CO)C[C@@H]3OC1CC(N(C)C)C(O)C(C)O1` (stereo partly specified), under “endpoint: median tumor weight (est.), dose: 2.67 mg/kg/injection, schedule: Q07DX005 (ip), vehicle: water”, the T/C was 88 % of control.
For `C[n+]1c(/C=N/NC(N)=S)ccc2ccccc21`, the T/C reads like this: (endpoint: median tumor weight change, dose: 62.5 mg/kg/injection, schedule: Q01DX001 (ip), vehicle: saline with Tween-80) 108 % of control; under setting [6], 181 % of control; under setting [7], 77 % of control.
In the case of `O=C(Nc1ccccc1C(=O)O)c1cc([N+](=O)[O-])cc([N+](=O)[O-])c1`, the T/C under setting [6] is 192 % of control and the T/C under setting [7] is 117 % of control.
`CC12CC(C(=O)O)C3(O)CC(C)(C1)CC(C)(C2)C3` (stereo unspecified) (tested in a mixture with another compound): the T/C is 93 % of control (endpoint: median tumor weight (est.), dose: 12.5 mg/kg/injection, schedule: Q07DX005 (ip), vehicle: Klucel (hydroxypropylcellulose) (HPC)); 78 % of control (endpoint: median tumor weight (est.), dose: 25.0 mg/kg/injection, schedule: Q07DX005 (ip), vehicle: Klucel (hydroxypropylcellulose) (HPC)); 56 % of control (endpoint: median tumor weight (est.), dose: 50.0 mg/kg/injection, schedule: Q07DX005 (ip), vehicle: Klucel (hydroxypropylcellulose) (HPC)); 87 % of control (endpoint: median tumor weight (est.), dose: 200.0 mg/kg/injection, schedule: Q07DX005 (ip), vehicle: Klucel (hydroxypropylcellulose) (HPC)); 71 % of control (endpoint: median tumor weight (est.), dose: 400.0 mg/kg/injection, schedule: Q07DX005 (ip), vehicle: Klucel (hydroxypropylcellulose) (HPC)).
On to `COc1cc2c(c(OC)c1OC)-c1ccc(OC)c(=O)cc1[C@@H](NC(C)=O)CC2`, for which the T/C is, setting by setting: (endpoint: median tumor weight (est.), dose: 0.75 mg/kg/injection, schedule: Q07DX005 (ip), vehicle: saline) 82 % of control and 97 % of control; (endpoint: median tumor weight (est.), dose: 1.5 mg/kg/injection, schedule: Q07DX005 (ip), vehicle: saline) 49 % of control; (endpoint: median tumor weight change, dose: 3.0 mg/kg/injection, schedule: Q01DX001 (ip), vehicle: suspension in saline) 21 % of control; (endpoint: median tumor weight change, dose: 6.25 mg/kg/injection, schedule: Q01DX001 (ip), vehicle: saline) -47 % of control.
Take `COc1cc2c(c(OC)c1OC)-c1ccc(OC)c(=O)cc1[C@@H](NC(=O)CCl)CC2`: the T/C (endpoint: median tumor weight change, dose: 5.0 mg/kg/injection, schedule: Q01DX001 (ip), vehicle: saline with Tween-80) is 76 % of control.
As for `CN1C(=O)NC(c2ccc(Cl)cc2)(c2ccc(Cl)cc2)C1=O`, the T/C reads like this: (endpoint: median tumor weight change, dose: 125.0 mg/kg/injection, schedule: Q01DX001 (ip), vehicle: distilled water + Tween-80) 98 % of control; (endpoint: median tumor weight change, dose: 250.0 mg/kg/injection, schedule: Q01DX001 (ip), vehicle: distilled water + Tween-80) 80 % of control; (endpoint: median tumor weight change, dose: 500.0 mg/kg/injection, schedule: Q01DX001 (ip), vehicle: distilled water + Tween-80) 70 % of control; (endpoint: median tumor weight change, dose: 1000.0 mg/kg/injection, schedule: Q01DX001 (ip), vehicle: distilled water + Tween-80) 40 % of control.
